Earlier results in PubChem BioAssay AID1259409 (Chemical Carcinogenesis Research Information System (CCRIS), 2018).
Where “and” joins values, the source holds several entries; their conditions need not be identical. Identical values can stand only once.

Tested on: rodent chemically induced tumor inhibition, incidence and multiplicity
Assay: CCRIS tumor inhibitor studies
Settings: Promoter: NONE USED

CC1=C(/C=C/C(C)=C/C=C/C(C)=C/C=C/C=C(C)/C=C/C=C(C)/C=C/C2=C(C)CCCC2(C)C)C(C)(C)CCC1
outcome (Carcinogen: N-METHYL-N'-NITRO-N-NITROSOGUANIDINE, 70-25-7, Dose [Inhibitor]: 0, 0.4% IN DIET FOR 2 WK PRIOR TO FIRST CARCINOGEN DOSE FOLLOWED BY 0, 0.2% IN DIET FOR 52 WK (STUDY DURATION: 54 WK), Dose [Inhibitor]: 0, 0.4% IN DIET FOR 2 WK PRIOR TO FIRST CARCINOGEN DOSE FOLLOWED BY 0, 0.2% IN DIET FOR 52 WK (STUDY DURATION: 54 WK), Route [Inhibitor]: ORAL, Species: RAT, Strain/Sex: WISTAR/MALE, Target Tissue: Type of Lesion: SMALL INTESTINE: FIBROSARCOMA, Dose [Carcinogen]: 80 UG/ML IN DRINKING WATER FOR 52 WK): 0/36 (0%), 1/35 (3%), -300%, not calculated
tumour outcome (control, treated, inhibition, significance) (Carcinogen: N-METHYL-N'-NITRO-N-NITROSOGUANIDINE, 70-25-7, Dose [Inhibitor]: 0, 0.4% IN DIET FOR 2 WK PRIOR TO FIRST CARCINOGEN DOSE FOLLOWED BY 0, 0.2% IN DIET FOR 52 WK (STUDY DURATION: 54 WK), Dose [Inhibitor]: 0, 0.4% IN DIET FOR 2 WK PRIOR TO FIRST CARCINOGEN DOSE FOLLOWED BY 0, 0.2% IN DIET FOR 52 WK (STUDY DURATION: 54 WK), Route [Inhibitor]: ORAL, Species: RAT, Strain/Sex: WISTAR/MALE, Target Tissue: Type of Lesion: SMALL INTESTINE: LEIOMYOMA, Dose [Carcinogen]: 80 UG/ML IN DRINKING WATER FOR 52 WK): 1/36 (3%), 0/35 (0%), 100%, not calculated
tumour outcome (control, treated, inhibition, significance) (Carcinogen: NONE USED, Dose [Inhibitor]: 0, 0.005% IN DRINKING WATER AD LIBITUM FOR 40 WK (STUDY DURATION: 40 WK), Route [Inhibitor]: ORAL, Species: MOUSE, Strain/Sex: C3H/HE/MALE, Target Tissue: Type of Lesion: LIVER: TUMOR): 100%, 100%, 0%, not significant
tumour outcome (control, treated, inhibition, significance) (Carcinogen: NONE USED, Dose [Inhibitor]: 0, 0.005% IN DRINKING WATER FOR 40 WK (STUDY DURATION: 40 WK), Route [Inhibitor]: ORAL, Species: MOUSE, Strain/Sex: C3H/HE/MALE, Target Tissue: Type of Lesion: LIVER: TUMORS): 16/16 (100%), 16/16 (100%), 0%, not significant
tumour outcome (control, treated, inhibition, significance) (Carcinogen: NONE USED, Dose [Inhibitor]: 0, 0.05% IN DRINKING WATER AD LIBITUM FOR 40 WK (STUDY DURATION: 40 WK), Route [Inhibitor]: ORAL, Species: MOUSE, Strain/Sex: C3H/HE/MALE, Target Tissue: Type of Lesion: LIVER: TUMOR): 100%, 100%, 0%, not significant
tumour outcome (control, treated, inhibition, significance) (Carcinogen: NONE USED, Dose [Inhibitor]: 0, 0.05% IN DRINKING WATER FOR 40 WK (STUDY DURATION: 40 WK), Route [Inhibitor]: ORAL, Species: MOUSE, Strain/Sex: C3H/HE/MALE, Target Tissue: Type of Lesion: LIVER: TUMORS): 16/16 (100%), 17/17 (100%), 0%, not significant
tumour outcome (control, treated, inhibition, significance) (Carcinogen: NONE USED, Dose [Inhibitor]: 0, 2.5 MG/D IN DRINKING WATER FROM 8 MO OF AGE (STUDY DURATION: 15 MO), Route [Inhibitor]: ORAL, Species: MOUSE, Strain/Sex: C3H/FEMALE, Target Tissue: Type of Lesion: MAMMARY GLAND: TUMOR): 12/20 (60%), 4/19 (21%), 65%, not calculated
tumour outcome (control, treated, inhibition, significance) (Carcinogen: UV-B IRRADIATION (HANOVIA QUARTZ CONTACT LAMP IN 290-320 NM RANGE), Dose [Inhibitor]: 0.4 ML OF BEADLET SOLUTION CONTAINING 0.1 G/4 ML 3/WK FOR 1 MO FOLLOWED BY 0.2 ML OF BEADLET SOLUTION CONTAINING 0.1 G/4, Route [Inhibitor]: INTRAPERITONEAL, Species: MOUSE, Strain/Sex: ALBINO, Target Tissue: Type of Lesion: SKIN: SQUAMOUS CELL CARCINOMA, Dose [Carcinogen]: 6.5 KJ/SQ M 3/WK FOR 15 MO BEGINNING 1 MO POST AGENT DOSE): 14/21 (67%), 6/20 (25%), 63%, p=0.0189 and 14/21 (67%), 5/18 (28%), 58%, p=0.0154
tumour outcome (control, treated, inhibition, significance) (Carcinogen: UV-B IRRADIATION (WESTINGHOUSE FS-20 SUNLAMP 55% IN 290-320 NM RANGE), Dose [Inhibitor]: 3.3 G/100 G OF PELLETIZED FEED BEGINNING 10 WK PRIOR TO CARCINOGEN DOSE TO 24 WK POST CARCINOGEN DOSE (STUDY DURATION: 3, Route [Inhibitor]: ORAL, Species: MOUSE, Strain/Sex: SKH, Target Tissue: Type of Lesion: SKIN: TUMOR, Dose [Carcinogen]: 80 KJ/SQ M TOTAL ENERGY DURING A 220 MINUTE SINGLE EXPOSURE): 4/9 (44%), 2/7 (29%), 34%, not significant
tumour outcome (control, treated, inhibition, significance) (Carcinogen: UVB IRRADIATION, Dose [Inhibitor]: 0, 1% IN DIET FOR DURATION OF STUDY BEGINNING 3 WK PRIOR TO IRRADIATION (STUDY DURATION: 33 WK), Route [Inhibitor]: ORAL, Species: MOUSE, Strain/Sex: C3H/HEN/FEMALE, Target Tissue: Type of Lesion: SKIN: TUMOR, Dose [Carcinogen]: 6 J/M2/SEC 30 MIN/D, 5 D/WK FOR 27 WK): 81%, 67%, 17%, not significant
